Measured values taken from ChEMBL document CHEMBL5523766 (J Med Chem, 2024).

Legend:
[1] = target: Cyclin-dependent kinase 2 (Homo sapiens, UniProt P24941); test: Inhibition of human CDK2
[2] = target: DNA-dependent protein kinase catalytic subunit (Homo sapiens, UniProt P78527); test: Inhibition of human DNA-PK
[3] = Apparent permeability across apical to basolateral side in dog MDCK-MDR1 cells; assay type: ADME, cell-based, Canis lupus familiaris
[4] = target: AMPK alpha2/beta1/gamma1 (Homo sapiens, UniProt P54619+P54646+Q9Y478); test: Inhibition of human AMPK alpha2/beta1/gamma1; assay type: protein-complex assay
[5] = target: Aurora kinase B (Homo sapiens, UniProt Q96GD4); test: Inhibition of human Aurora B
Aurora kinase B, sequence (Q96GD4 whole entry): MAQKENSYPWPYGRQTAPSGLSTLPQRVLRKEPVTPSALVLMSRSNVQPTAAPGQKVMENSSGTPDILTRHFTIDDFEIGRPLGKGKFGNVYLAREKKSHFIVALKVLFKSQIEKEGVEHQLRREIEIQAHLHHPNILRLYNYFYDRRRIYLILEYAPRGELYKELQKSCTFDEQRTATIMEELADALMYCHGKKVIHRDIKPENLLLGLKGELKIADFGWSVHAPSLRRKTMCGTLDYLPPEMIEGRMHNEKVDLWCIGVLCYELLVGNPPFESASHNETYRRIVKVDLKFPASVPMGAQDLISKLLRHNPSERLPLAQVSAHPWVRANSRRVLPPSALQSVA

[6] = Acute toxicity in Beagle dog assessed as change in serum creatinine level at 10 to 90 mg/kg,po once daily for 7 days; assay type: organism-based, Canis lupus familiaris; settings: in vivo, 168 h, dose 10-90 mg/kg, time 7 day
[7] = target: Receptor-type tyrosine-protein kinase FLT3 (Homo sapiens, UniProt P36888); test: Inhibition of human FLT3
[8] = Tmax in ICR mouse at 50 mg/kg,po measured upto 24 hrs by LC-MS/MS analysis; assay type: ADME, organism-based; settings: in vivo
[9] = Apparent permeability across basolateral to apical side in human Caco-2 cells; assay type: ADME, cell-based
[10] = Toxicity in CB17-SCID mouse xenografted with human Granta-519 cells assessed as change in body weight at 50 mg/kg,po bid for 3 weeks administrated 5 days weekly; assay type: organism-based; settings: in vivo, 504 h
[11] = Toxicity in BALB/c mouse xenografted with human PC-3 cells assessed as change in body weight at 50 mg/kg,po bid for 3 weeks administrated 5 days weekly; assay type: organism-based; settings: in vivo, 504 h
[12] = target: Serine/threonine-protein kinase ATR (Homo sapiens, UniProt Q13535); test: Inhibition of human ATR
[13] = AUCinfinity in ICR mouse at 50 mg/kg,po measured upto 24 hrs by LC-MS/MS analysis; assay type: ADME, organism-based; settings: in vivo
[14] = target: Interleukin-1 receptor-associated kinase 4 (Homo sapiens, UniProt Q9NWZ3); test: Inhibition of human IRAK4
[15] = target: Tyrosine-protein kinase BTK (Homo sapiens, UniProt Q06187); test: Inhibition of human BTK
[16] = Brain to plasma ratio in ICR mouse at 50 mg/kg,po measured upto 24 hrs by LC-MS/MS analysis; assay type: ADME, organism-based
[17] = target: Tyrosine-protein kinase JAK1 (Homo sapiens, UniProt P23458); test: Inhibition of human JAK1
[18] = target: Serine/threonine-protein kinase 17B (Homo sapiens, UniProt O94768); test: Inhibition of human DRAK2
Serine/threonine-protein kinase 17B, sequence (O94768 whole entry): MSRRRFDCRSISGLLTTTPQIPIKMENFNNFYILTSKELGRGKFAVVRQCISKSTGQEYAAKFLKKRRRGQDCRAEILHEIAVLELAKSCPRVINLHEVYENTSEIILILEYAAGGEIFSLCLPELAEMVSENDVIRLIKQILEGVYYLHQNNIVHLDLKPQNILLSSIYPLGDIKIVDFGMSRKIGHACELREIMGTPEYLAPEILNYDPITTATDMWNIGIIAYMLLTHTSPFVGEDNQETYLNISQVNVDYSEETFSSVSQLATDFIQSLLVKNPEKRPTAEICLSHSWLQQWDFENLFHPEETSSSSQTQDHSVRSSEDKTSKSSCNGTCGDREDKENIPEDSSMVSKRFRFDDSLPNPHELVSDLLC

[19] = target: CYP3A4 (Homo sapiens, UniProt P08684); test: Time dependent inhibition of CYP3A4 (unknown origin) at 10 uM relative to control; assay type: ADME; settings: read-out: TDI
[20] = Acute toxicity in Beagle dog assessed as change in body weight at 10 to 90 mg/kg,po once daily for 7 days; assay type: organism-based, Canis lupus familiaris; settings: in vivo, 168 h, dose 10-90 mg/kg, time 7 day
[21] = target: Tyrosine-protein kinase Lck (Homo sapiens, UniProt P06239); test: Inhibition of human LCK
Tyrosine-protein kinase Lck, sequence (P06239 whole entry): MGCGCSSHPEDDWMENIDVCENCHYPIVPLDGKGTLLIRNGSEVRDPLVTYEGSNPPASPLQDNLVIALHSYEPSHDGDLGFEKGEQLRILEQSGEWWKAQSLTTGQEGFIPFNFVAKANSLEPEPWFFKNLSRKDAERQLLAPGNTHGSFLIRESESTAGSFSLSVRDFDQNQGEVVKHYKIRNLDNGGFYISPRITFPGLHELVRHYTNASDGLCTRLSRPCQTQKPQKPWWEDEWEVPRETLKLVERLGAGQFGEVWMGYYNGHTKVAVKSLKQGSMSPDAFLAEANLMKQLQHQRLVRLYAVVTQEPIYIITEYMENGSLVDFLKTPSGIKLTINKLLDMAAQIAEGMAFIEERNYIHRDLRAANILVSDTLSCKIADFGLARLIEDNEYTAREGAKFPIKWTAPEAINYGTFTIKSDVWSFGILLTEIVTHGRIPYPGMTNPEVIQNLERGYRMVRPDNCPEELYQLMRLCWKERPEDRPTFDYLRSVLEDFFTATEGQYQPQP

[22] = tested on: Granta-519; test: Induction of apoptosis in human Granta-519 cells assessed as viable cells at 2000 nM incubated for 48 hrs by Annexin-V-FITC/propidium iodide staining based flow cytometry (reference value: 92.7 %); assay type: functional; settings: read-out: Activity
[23] = Apparent permeability across apical to basolateral side in human Caco-2 cells; assay type: ADME, cell-based
[24] = target: CYP2C19 (Homo sapiens, UniProt P33261); test: Time dependent inhibition of CYP2C19 (unknown origin) at 10 uM relative to control; assay type: ADME; settings: read-out: TDI
CYP2C19, sequence (P33261 whole entry): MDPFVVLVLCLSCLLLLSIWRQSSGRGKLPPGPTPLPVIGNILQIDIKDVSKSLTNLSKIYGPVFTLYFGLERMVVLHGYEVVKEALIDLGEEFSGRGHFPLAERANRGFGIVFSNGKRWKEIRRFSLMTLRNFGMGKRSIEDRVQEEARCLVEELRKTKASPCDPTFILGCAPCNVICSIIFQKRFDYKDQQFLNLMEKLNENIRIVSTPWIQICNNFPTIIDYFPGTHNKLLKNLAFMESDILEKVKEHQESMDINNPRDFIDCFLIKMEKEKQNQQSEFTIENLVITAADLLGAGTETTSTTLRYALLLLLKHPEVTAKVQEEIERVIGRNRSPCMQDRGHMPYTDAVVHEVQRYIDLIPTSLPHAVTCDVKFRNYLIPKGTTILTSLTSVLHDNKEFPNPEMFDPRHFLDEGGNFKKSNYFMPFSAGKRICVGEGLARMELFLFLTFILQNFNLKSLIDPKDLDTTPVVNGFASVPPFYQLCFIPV

[25] = target: CYP2D6 (Homo sapiens, UniProt P10635); test: Time dependent inhibition of CYP2D6 (unknown origin) at 10 uM relative to control; assay type: ADME; settings: read-out: TDI
[26] = Toxicity in BALB/c mouse xenografted with human A2780 cells assessed as change in body weight at 50 mg/kg,po bid for 3 weeks administrated 5 days weekly; assay type: organism-based; settings: in vivo, 504 h
[27] = target: CYP2C9 (Homo sapiens, UniProt P11712); test: Time dependent inhibition of CYP2C9 (unknown origin) at 10 uM relative to control; assay type: ADME; settings: read-out: TDI
CYP2C9, sequence (P11712 whole entry): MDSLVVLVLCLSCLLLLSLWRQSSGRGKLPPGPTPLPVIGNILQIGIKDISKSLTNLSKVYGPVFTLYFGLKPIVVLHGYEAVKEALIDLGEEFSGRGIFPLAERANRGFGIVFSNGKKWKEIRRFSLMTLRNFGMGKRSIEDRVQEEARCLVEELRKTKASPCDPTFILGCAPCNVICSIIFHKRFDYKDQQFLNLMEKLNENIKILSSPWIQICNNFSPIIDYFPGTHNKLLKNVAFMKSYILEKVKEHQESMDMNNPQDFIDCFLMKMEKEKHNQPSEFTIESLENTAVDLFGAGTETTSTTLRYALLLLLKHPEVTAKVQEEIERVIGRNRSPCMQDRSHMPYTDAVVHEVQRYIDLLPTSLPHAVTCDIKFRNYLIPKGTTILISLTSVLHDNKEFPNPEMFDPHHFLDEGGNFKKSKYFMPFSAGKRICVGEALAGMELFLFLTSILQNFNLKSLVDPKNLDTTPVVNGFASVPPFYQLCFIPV

[28] = Acute toxicity in Beagle dog assessed as change in platelet count at 10 to 90 mg/kg,po once daily for 7 days; assay type: organism-based, Canis lupus familiaris; settings: in vivo, 168 h, dose 10-90 mg/kg, time 7 day
[29] = target: NUAK family SNF1-like kinase 1 (Homo sapiens, UniProt O60285); test: Inhibition of human ARK5
NUAK family SNF1-like kinase 1, sequence (O60285 whole entry): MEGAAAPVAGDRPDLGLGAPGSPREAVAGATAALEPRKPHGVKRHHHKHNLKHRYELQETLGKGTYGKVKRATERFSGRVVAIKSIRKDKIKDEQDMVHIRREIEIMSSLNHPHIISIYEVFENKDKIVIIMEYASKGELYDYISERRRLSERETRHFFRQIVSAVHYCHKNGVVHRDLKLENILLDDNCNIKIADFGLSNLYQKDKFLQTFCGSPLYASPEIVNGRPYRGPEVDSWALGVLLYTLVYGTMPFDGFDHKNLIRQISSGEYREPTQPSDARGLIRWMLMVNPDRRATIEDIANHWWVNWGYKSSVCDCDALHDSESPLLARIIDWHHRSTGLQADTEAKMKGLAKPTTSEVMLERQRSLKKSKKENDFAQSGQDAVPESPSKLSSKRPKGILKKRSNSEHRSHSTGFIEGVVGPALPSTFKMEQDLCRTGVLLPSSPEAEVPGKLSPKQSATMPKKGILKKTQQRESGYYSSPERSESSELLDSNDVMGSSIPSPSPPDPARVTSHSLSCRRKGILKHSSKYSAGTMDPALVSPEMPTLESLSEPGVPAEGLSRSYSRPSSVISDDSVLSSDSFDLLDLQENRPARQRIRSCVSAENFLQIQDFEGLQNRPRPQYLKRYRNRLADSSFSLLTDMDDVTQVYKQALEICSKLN

[30] = Plasma protein binding in mouse; assay type: ADME, cell-free; settings: read-out: PPB (converted)
[31] = Toxicity in BALB/c mouse xenografted with human CAPAN-1 cells assessed as change in body weight at 50 mg/kg,po once daily for 3 weeks administrated 4 days weekly in presence of gemcitabine; assay type: organism-based; settings: in vivo, 504 h
[32] = target: Serine/threonine-protein kinase mTOR (Homo sapiens, UniProt P42345); test: Inhibition of human mTOR
[33] = Lipophilicity, logD of compound at pH 7.4; assay type: physicochemical; settings: buffer
[34] = Half life in ICR mouse at 50 mg/kg,po measured upto 24 hrs by LC-MS/MS analysis; assay type: ADME, organism-based; settings: in vivo
[35] = target: Phosphatidylinositol 4,5-bisphosphate 3-kinase catalytic subunit alpha isoform (Homo sapiens, UniProt P42336); test: Inhibition of human PI3Kalpha
Phosphatidylinositol 4,5-bisphosphate 3-kinase catalytic subunit alpha isoform, sequence (P42336 whole entry, canonical isoform): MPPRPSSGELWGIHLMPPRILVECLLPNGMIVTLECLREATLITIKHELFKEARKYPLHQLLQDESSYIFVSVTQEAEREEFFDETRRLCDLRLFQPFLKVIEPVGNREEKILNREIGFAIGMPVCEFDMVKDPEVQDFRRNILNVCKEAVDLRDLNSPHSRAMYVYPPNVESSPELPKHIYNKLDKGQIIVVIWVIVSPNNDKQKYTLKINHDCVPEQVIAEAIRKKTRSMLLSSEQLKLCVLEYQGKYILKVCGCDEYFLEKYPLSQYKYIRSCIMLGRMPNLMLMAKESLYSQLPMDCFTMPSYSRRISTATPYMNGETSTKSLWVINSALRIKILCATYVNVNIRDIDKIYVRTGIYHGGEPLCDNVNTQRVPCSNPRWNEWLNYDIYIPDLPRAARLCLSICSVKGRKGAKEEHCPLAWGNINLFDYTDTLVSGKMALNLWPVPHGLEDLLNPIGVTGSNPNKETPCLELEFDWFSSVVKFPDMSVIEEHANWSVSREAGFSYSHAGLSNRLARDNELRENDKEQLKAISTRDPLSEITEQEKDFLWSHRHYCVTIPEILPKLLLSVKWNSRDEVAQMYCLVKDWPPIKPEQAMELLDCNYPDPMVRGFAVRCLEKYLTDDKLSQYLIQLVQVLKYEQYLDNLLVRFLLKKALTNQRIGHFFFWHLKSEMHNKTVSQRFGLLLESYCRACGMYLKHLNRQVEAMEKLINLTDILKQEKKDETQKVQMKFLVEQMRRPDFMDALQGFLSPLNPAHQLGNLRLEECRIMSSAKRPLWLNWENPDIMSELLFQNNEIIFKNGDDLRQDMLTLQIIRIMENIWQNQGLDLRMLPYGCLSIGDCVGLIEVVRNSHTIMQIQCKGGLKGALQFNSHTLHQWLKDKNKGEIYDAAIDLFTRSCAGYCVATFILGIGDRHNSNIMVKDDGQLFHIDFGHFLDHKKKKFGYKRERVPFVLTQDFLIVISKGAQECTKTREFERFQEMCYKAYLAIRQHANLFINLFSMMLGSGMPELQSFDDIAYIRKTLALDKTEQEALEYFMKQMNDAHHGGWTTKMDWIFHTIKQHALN

[36] = target: CYP1A2 (Homo sapiens, UniProt P05177); test: Time dependent inhibition of CYP1A2 (unknown origin) at 10 uM relative to control; assay type: ADME; settings: read-out: TDI
CYP1A2, sequence (P05177 whole entry): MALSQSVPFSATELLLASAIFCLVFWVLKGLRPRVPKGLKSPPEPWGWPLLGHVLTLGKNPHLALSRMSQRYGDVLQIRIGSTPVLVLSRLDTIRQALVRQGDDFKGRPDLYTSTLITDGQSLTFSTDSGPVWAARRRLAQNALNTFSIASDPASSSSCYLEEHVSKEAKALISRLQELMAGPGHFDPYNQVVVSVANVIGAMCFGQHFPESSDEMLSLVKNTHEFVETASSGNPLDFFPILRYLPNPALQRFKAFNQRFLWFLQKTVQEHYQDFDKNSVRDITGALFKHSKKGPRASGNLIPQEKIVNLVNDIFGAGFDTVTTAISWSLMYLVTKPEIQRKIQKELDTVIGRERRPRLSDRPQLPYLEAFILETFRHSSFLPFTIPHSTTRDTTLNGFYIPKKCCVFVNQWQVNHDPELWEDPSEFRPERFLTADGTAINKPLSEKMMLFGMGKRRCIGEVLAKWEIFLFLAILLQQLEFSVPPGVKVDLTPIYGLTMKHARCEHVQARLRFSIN

[37] = Apparent permeability across basolateral to apical side in dog MDCK-MDR1 cells; assay type: ADME, cell-based, Canis lupus familiaris
[38] = target: ATR/ATRIP (Homo sapiens, UniProt Q13535); test: Inhibition of ATR/ATRIP (unknown origin) using 5-FAM-AK-17 as substrate preincubated with compound for 10 mins followed by ATP addition and measured after 240 mins by mobility shift assay; assay type: protein-complex assay
[39] = target: Tyrosine-protein kinase Mer (Homo sapiens, UniProt Q12866); test: Inhibition of human MER
[40] = Toxicity in BALB/c mouse xenografted with human HT-29 cells assessed as change in body weight at 50 mg/kg,po once daily for 4 weeks in presence of 3 Gy of ionizing radiation; assay type: organism-based; settings: in vivo, 672 h
[41] = target: Tyrosine-protein kinase Lyn (Homo sapiens, UniProt P07948); test: Inhibition of human LYN
Tyrosine-protein kinase Lyn, sequence (P07948 whole entry): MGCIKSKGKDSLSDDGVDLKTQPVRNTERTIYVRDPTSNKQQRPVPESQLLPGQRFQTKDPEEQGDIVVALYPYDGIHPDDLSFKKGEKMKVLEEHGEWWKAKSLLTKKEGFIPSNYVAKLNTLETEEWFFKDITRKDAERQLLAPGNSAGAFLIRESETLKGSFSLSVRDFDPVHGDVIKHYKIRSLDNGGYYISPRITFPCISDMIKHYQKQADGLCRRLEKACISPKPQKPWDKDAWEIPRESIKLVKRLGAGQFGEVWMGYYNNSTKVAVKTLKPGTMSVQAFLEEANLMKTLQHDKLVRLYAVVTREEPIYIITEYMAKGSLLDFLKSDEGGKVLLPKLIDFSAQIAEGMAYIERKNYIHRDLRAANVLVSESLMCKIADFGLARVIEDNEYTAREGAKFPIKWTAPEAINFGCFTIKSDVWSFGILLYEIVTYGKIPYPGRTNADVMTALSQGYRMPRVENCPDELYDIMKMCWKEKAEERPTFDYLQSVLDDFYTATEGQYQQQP

[42] = target: Serine/threonine-protein kinase BRSK2 (Homo sapiens, UniProt Q8IWQ3); test: Inhibition of human BRSK2
[43] = Toxicity in CB17-SCID mouse xenografted with human Granta-519 cells assessed as change in body weight at 50 mg/kg,po once daily for 3 weeks administrated 5 days weekly in presence of niraparib; assay type: organism-based; settings: in vivo, 504 h
[44] = target: Serine-protein kinase ATM (Homo sapiens, UniProt Q13315); test: Inhibition of human ATM
[45] = tested on: Granta-519; test: Induction of apoptosis in human Granta-519 cells assessed as viable cells at 1000 nM incubated for 48 hrs by Annexin-V-FITC/propidium iodide staining based flow cytometry (reference value: 92.7 %); assay type: functional; settings: read-out: Activity
[46] = AUClast in ICR mouse at 50 mg/kg,po measured upto 24 hrs by LC-MS/MS analysis; assay type: ADME, organism-based; settings: in vivo
[47] = tested on: Granta-519; test: Induction of apoptosis in human Granta-519 cells assessed as viable cells at 500 nM incubated for 48 hrs by Annexin-V-FITC/propidium iodide staining based flow cytometry (reference value: 92.7 %); assay type: functional; settings: read-out: Activity
[48] = Cmax in ICR mouse at 50 mg/kg,po measured upto 24 hrs by LC-MS/MS analysis; assay type: ADME, organism-based; settings: in vivo

C[C@@H]1COCCN1c1nc(-c2ccnc3[nH]ccc23)nc2c1ccn2S(C)(=O)=O
IC50 [1]: > 10 µM
IC50 [2]: 0.119 µM
Papp A→B [3]: 41.9 ×10⁻⁶ cm/s
IC50 [4]: > 10 µM
IC50 [5]: > 10 µM
Activity [6]: Toxic
IC50 [7]: > 10 µM
Tmax [8]: 1 h
Papp B→A [9]: 32.5 ×10⁻⁶ cm/s
Activity [10]: Toxic
Activity [11]: Toxic
IC50 [12]: 0.0025 µM
AUC(0-inf) [13]: 140 µg·h/mL
IC50 [14]: > 10 µM
IC50 [15]: > 10 µM
BPR [16]: 31%
IC50 [17]: > 10 µM
IC50 [18]: > 10 µM
inhibition at 10 µM [19]: 21.2%
Activity [20]: Non-Toxic
IC50 [21]: 2.59 µM
viability at 2 µM [22]: 76.9%
Papp A→B [23]: 39.6 ×10⁻⁶ cm/s
inhibition at 10 µM [24]: 12.1%
inhibition at 10 µM [25]: 2%
Activity [26]: Toxic
inhibition at 10 µM [27]: 7.09%
Activity [28]: Toxic
IC50 [29]: 7.31 µM
fraction unbound [30]: 0.005
Activity [31]: Toxic
IC50 [32]: 0.0458 µM
logD [33]: 3.61
half-life [34]: 2.29 h
IC50 [35]: 2.06 µM
inhibition at 10 µM [36]: 37.5%
Papp B→A [37]: 51.2 ×10⁻⁶ cm/s
IC50 [38]: 0.0016 µM
IC50 [39]: > 10 µM
Activity [40]: Toxic
IC50 [41]: > 10 µM
IC50 [42]: > 10 µM
Activity [43]: Toxic
IC50 [44]: 3.21 µM
viability at 1 µM [45]: 81.3%
AUC(0-t) at 24 h [46]: 140 µg·h/mL
viability at 0.5 µM [47]: 89.6%
Cmax [48]: 19800 ng/mL
